Experimental data as given in ChEMBL document CHEMBL1909046, “DrugMatrix in vitro pharmacology data”.

Experiments:
[1] = DRUGMATRIX: Sodium/nucleoside co-transporter radioligand binding (ligand: nitrobenzylthioinosine); assay type: cell membranes, Cavia porcellus, Dunkin-Hartley, Cerebral cortex, Membrane; conditions: Not Active = under 50% inhibition at 10 µM
[2] = target: T1, Alpha-1B adrenergic receptor (Rattus norvegicus, UniProt P15823); assay: DRUGMATRIX: Alpha-1B adrenergic receptor radioligand binding (ligand: prazosin); assay type: cell membranes, Wistar, Liver, Membrane; conditions: Not Active = under 50% inhibition at 10 µM
T1 sequence (P15823 whole entry): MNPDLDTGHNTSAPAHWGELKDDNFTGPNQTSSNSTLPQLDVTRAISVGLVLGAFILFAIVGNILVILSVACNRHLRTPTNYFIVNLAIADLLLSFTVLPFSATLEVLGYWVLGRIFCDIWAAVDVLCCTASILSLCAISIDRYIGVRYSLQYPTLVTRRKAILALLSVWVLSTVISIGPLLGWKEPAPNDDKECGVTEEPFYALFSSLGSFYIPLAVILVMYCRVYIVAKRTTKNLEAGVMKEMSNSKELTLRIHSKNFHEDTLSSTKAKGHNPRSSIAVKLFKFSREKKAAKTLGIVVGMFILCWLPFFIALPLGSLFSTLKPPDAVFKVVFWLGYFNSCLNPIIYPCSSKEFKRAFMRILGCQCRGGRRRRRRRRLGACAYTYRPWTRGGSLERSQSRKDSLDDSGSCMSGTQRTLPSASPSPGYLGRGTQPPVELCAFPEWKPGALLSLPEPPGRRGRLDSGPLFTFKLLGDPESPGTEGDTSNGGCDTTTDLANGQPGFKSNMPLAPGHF

[3] = DRUGMATRIX: ATPase, Na+/K+ enzyme inhibition (substrate: ATP); assay type: tissue-based, Sus scrofa, Heart; conditions: Not Active = under 50% inhibition at 10 µM
[4] = target: Vascular endothelial growth factor receptor 1 (Homo sapiens, UniProt P17948); assay type: cell-based; conditions: huvec; note: in other assays of this panel Not Active means under 50% inhibition at 10 µM
D(4) dopamine receptor = target: T2, D(4) dopamine receptor (Homo sapiens, UniProt P21917); assay: DRUGMATRIX: Dopamine D4.2 radioligand binding (ligand: [3H] Spiperone); assay type: cell membranes, CHO-K1, Membrane; conditions: cho-k1; Not Active = under 50% inhibition at 10 µM
T2 sequence (P21917 whole entry): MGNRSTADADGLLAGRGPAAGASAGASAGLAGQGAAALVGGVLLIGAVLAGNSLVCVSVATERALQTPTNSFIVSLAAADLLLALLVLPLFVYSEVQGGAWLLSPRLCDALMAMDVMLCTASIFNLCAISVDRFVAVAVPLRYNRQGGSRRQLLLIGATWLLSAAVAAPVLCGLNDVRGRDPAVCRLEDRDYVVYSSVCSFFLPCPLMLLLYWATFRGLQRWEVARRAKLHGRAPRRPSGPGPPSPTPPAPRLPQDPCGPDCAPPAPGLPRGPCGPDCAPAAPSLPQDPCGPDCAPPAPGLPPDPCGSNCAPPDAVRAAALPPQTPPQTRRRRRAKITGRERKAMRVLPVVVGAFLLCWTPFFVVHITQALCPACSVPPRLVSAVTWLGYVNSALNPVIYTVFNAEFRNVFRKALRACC

Melanocortin receptor 5 = Melanocortin receptor 5 (Homo sapiens, UniProt P33032); assay type: cell membranes, HEK293, Membrane; conditions: hek293; note: in other assays of this panel Not Active means under 50% inhibition at 10 µM
Cytochrome P450 2C9 = Cytochrome P450 2C9 (Homo sapiens, UniProt P11712); conditions: bti-tn-5b1-4; note: in other assays of this panel Not Active means under 50% inhibition at 10 µM
Cytochrome P450 2C9, sequence (P11712 whole entry): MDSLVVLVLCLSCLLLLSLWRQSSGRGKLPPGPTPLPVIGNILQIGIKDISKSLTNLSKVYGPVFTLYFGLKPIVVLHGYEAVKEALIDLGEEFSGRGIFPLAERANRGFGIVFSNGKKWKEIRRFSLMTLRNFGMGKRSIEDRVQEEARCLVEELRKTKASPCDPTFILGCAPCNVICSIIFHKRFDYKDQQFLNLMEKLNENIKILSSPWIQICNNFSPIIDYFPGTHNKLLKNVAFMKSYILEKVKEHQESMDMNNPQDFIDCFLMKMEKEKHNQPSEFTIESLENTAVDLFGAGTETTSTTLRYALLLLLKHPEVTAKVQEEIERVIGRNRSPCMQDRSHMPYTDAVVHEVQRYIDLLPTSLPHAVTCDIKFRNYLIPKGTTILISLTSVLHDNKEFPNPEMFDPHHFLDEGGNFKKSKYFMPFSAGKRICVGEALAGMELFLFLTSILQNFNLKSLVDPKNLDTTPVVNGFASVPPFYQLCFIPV

Vascular endothelial growth factor receptor 1, sequence (P17948 whole entry): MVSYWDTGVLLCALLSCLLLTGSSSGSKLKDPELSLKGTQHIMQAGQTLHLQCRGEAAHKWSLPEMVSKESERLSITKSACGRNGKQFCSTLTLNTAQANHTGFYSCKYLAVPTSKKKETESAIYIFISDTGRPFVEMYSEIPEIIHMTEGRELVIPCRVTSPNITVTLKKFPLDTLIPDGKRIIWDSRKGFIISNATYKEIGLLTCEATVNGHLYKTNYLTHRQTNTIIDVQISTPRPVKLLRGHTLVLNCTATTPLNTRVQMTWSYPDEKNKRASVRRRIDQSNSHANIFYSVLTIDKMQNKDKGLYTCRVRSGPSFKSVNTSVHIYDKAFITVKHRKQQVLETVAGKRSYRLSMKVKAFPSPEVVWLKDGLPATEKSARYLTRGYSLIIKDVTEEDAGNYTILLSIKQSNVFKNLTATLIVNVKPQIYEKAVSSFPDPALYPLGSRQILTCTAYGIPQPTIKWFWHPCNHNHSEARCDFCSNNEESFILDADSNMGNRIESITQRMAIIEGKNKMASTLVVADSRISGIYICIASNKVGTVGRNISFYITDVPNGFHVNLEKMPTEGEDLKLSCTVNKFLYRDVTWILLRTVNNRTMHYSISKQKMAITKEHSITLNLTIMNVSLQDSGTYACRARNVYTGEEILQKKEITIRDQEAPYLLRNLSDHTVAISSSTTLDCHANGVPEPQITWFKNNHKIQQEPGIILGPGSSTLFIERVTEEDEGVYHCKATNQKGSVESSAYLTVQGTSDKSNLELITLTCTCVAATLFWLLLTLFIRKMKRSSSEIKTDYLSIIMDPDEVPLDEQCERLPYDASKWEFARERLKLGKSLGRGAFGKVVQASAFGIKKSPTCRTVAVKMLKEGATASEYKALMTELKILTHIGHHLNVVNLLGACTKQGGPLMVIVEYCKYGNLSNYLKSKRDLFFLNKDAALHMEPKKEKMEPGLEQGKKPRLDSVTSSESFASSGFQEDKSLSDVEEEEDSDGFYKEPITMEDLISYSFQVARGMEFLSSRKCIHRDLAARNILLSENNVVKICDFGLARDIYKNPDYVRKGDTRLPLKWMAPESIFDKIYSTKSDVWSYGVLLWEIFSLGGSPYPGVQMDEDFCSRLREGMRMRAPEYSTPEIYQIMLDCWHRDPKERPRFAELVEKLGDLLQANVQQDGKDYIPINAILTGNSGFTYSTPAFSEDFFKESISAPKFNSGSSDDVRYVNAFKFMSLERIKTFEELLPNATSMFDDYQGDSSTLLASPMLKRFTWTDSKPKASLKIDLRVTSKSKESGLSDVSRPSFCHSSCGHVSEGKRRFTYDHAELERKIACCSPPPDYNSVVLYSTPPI
Melanocortin receptor 5, sequence (P33032 whole entry): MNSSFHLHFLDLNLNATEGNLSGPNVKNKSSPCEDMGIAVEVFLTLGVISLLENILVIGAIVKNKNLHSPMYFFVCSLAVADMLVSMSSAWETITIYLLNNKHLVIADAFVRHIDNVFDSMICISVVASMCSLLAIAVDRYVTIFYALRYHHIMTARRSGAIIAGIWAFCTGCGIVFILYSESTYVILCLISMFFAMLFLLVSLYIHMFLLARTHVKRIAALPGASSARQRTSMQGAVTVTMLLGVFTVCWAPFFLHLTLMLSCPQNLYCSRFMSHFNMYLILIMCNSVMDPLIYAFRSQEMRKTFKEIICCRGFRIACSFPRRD

N[C@@H](Cc1ccc(O)c(O)c1)C(=O)O [LEVODOPA]
Not Active: IC50 [1] | Ki [1] | IC50 [2] | IC50 [3] | Ki [3] | IC50 [4] | IC50 (D(4) dopamine receptor) | IC50 (Melanocortin receptor 5) | IC50 (Cytochrome P450 2C9) | Ki (Cytochrome P450 2C9)
